Values quoted from earlier work, collected in patent US20140065213A1, “Sustained Release Paracetamol Formulations” (GlaxoSmithKline, LLC, priority 2011, published 2014).

CC(=O)Nc1ccc(O)cc1 [paracetamol, N-acetyl-p-aminophenol]
tmax (maximum plasma concentration) (oral doses of conventional immediate release tablets): 0.5 to 1.5 h | elimination half-life (reported): 1.9 to 2.5 h
